A short description of the data set: Qualitative solubility in solvents. The data set is classed as physicochemical.

In the case of 5‴-Epi-Cytorhodin S, the Löslichkeit entry is, setting by setting: (in Methanol, Ethylacetat, Chloroform und Toluol) “leicht löslich”; (in Wasser und Hexan) “unlöslich”.

(Values after patent EP0311002A2, “Anthracyclin derivatives, a method for their preparation and their use as a drug” (HOECHST AKTIENGESELLSCHAFT, priority 1987, dated 1989).)
